Biological target: human LPA1 receptor (Homo sapiens (Human), UniProt Q92633)
Experiment: Beta-arrestin recruitment assay to determine IC50 values for human LPAR1
Format: cell-based
Settings: antagonist mode, Tango EDG2-bla U2OS cells, LPA 18:1 500 nM final
Summary of the method: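 Antagonist IC50 = concentration giving 50% inhibition of maximal LPA response. Read-out is beta-lactamase reporter activity after arrestin-protease recruitment in U2OS cells bearing LPA1-TEV-Gal4-VP16 construct; cells pre-incubated 20 h, 37 °C, 5% CO2.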

Chain of human LPA1 receptor (Q92633 whole entry): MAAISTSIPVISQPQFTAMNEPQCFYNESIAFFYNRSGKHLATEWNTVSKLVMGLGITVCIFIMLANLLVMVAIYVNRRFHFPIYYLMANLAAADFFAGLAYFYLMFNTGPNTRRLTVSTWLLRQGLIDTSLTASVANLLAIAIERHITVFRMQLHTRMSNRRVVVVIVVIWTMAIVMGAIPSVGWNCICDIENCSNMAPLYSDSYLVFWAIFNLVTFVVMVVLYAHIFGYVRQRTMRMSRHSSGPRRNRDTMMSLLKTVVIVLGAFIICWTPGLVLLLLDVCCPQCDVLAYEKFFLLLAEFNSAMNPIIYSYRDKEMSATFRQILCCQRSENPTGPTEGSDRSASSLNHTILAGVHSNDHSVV

SMILES | IC50 [nM]
COC(=O)c1n[nH]cc1CN1CC(C(=O)Nc2ccc(C)nc2OC(F)F)(c2ccccc2C(C)C)C1 [Ex 11-37, methyl 4-((3-((2-(difluoromethoxy)-6-methylpyridin-3-yl)carbamoyl)-3-(2-isopropylphenyl)azetidin-1-yl)methyl)-1H-pyrazole-3-carboxylate] | 6
Cc1ccc(NC(=O)C2(c3ccccc3C(C)C)CN(Cc3n[nH]cc3C(=O)O)C2)c(OC(F)F)n1 [Ex 11-40, 3-((3-((2-(difluoromethoxy)-6-methylpyridin-3-yl)carbamoyl)-3-(2-isopropylphenyl)azetidin-1-yl)methyl)-1H-pyrazole-4-carboxylic acid] | 270
CCOC(=O)c1cc(CN2CC(C(=O)Nc3ccc(C)nc3OC(F)F)(c3ccccc3C(C)C)C2)on1 [Ex 11-34, ethyl 5-((3-((2-(difluoromethoxy)-6-methylpyridin-3-yl)carbamoyl)-3-(2-isopropylphenyl)azetidin-1-yl)methyl)isoxazole-3-carboxylate] | 79
Cc1ccc(NC(=O)C2(c3ccccc3C(C)C)CN(CCCC(C)(C)C(=O)O)C2)c(OC(F)F)n1 [Ex 11-69, 5-(3-((2-(difluoromethoxy)-6-methylpyridin-3-yl)carbamoyl)-3-(2-isopropylphenyl)azetidin-1-yl)-2,2-dimethylpentanoic acid] | 15
Cc1ccc(NC(=O)C2(c3ccccc3C(C)C)CN(C(=O)COCCOCC(=O)OCc3ccccc3)C2)c(OC(F)F)n1 [Ex 12-106, benzyl 2-(2-(2-(3-((2-(difluoromethoxy)-6-methylpyridin-3-yl)carbamoyl)-3-(2-isopropylphenyl)azetidin-1-yl)-2-oxoethoxy)ethoxy)acetate] | 59
Cc1ccc(NC(=O)C2(c3ccccc3C(C)C)CN(C(=O)C(C)(C)CC(=O)O)C2)c(OC(F)F)n1 [Ex 12-91, 4-(3-((2-(difluoromethoxy)-6-methylpyridin-3-yl)carbamoyl)-3-(2-isopropylphenyl)azetidin-1-yl)-3,3-dimethyl-4-oxobutanoic acid] | 5
Cc1ccc(NC(=O)C2(c3ccccc3C(C)C)CN(Cc3ccc(C(=O)O)nc3)C2)c(OC(F)F)n1 [Ex 11-53, 5-((3-((2-(difluoromethoxy)-6-methylpyridin-3-yl)carbamoyl)-3-(2-isopropylphenyl)azetidin-1-yl)methyl)picolinic acid] | 115
Cc1ccc(NC(=O)C2(c3ccccc3C(C)C)CN(C(=O)[C@H](C)N)C2)c(OC(F)F)n1 [Ex 12-33, 1-(L-alanyl)-N-(2-(difluoromethoxy)-6-methylpyridin-3-yl)-3-(2-isopropylphenyl)azetidine-3-carboxamide] | 10
Cc1ccc(NC(=O)C2(c3ccccc3C(C)C)CN(S(=O)(=O)c3[nH]ncc3C(=O)O)C2)c(OC(F)F)n1 [Ex 13-25, 5-((3-((2-(difluoromethoxy)-6-methylpyridin-3-yl)carbamoyl)-3-(2-isopropylphenyl)azetidin-1-yl)sulfonyl)-1H-pyrazole-4-carboxylic acid] | 400
Cc1ccc(NC(=O)C2(c3ccccc3C(C)C)CCN(C(=O)Cc3c[nH]nc3O)CC2)c(OC(F)F)n1 [Ex 12-27, N-(2-(difluoromethoxy)-6-methylpyridin-3-yl)-1-(2-(3-hydroxy-1H-pyrazol-4-yl)acetyl)-4-(2-isopropylphenyl)piperidine-4-carboxamide] | 4
Cc1ccc(NC(=O)C2(c3ccccc3C(C)C)CN(CC(=O)O)C2)c(OC(F)F)n1 [Ex 11-12, 2-(3-((2-(difluoromethoxy)-6-methylpyridin-3-yl)carbamoyl)-3-(2-isopropylphenyl)azetidin-1-yl)acetic acid] | 22
CC(C)c1ccccc1C1(C(=O)Nc2cccnc2OC(F)F)CN(S(=O)(=O)CCC(=O)O)C1 [Ex 13-10, 3-((3-((2-(difluoromethoxy)pyridin-3-yl)carbamoyl)-3-(2-isopropylphenyl)azetidin-1-yl)sulfonyl)propanoic acid] | 20
Cc1ccc(NC(=O)C2(c3ccccc3C(C)C)CN(c3nnn[nH]3)C2)c(OC(F)F)n1 [Ex 20, N-(2-(difluoromethoxy)-6-methylpyridin-3-yl)-3-(2-isopropylphenyl)-1-(1H-tetrazol-5-yl)azetidine-3-carboxamide] | 37
Cc1ccc(NC(=O)C2(c3ccccc3C(C)C)CN(C(=O)CNC[C@H](C)O)C2)c(OC(F)F)n1 [Ex 12-56, (S)-N-(2-(difluoromethoxy)-6-methylpyridin-3-yl)-1-((S)-(2-hydroxypropyl)glycyl)-3-(2-isopropylphenyl)azetidine-3-carboxamide] | 7
COC(=O)C(C)(C)CN1CC(C(=O)Nc2ccc(C)nc2OC(F)F)(c2ccccc2C(C)C)C1 [Ex 11-24, methyl 3-(3-((2-(difluoromethoxy)-6-methylpyridin-3-yl)carbamoyl)-3-(2-isopropylphenyl)azetidin-1-yl)-2,2-dimethylpropanoate] | 280
C=C(CC(=O)OC)C(=O)N1CC(C(=O)Nc2ccc(C)nc2OC(F)F)(c2ccccc2C(C)C)C1 [Ex 12-92, methyl 3-(3-((2-(difluoromethoxy)-6-methylpyridin-3-yl)carbamoyl)-3-(2-isopropylphenyl)azetidine-1-carbonyl)but-3-enoate] | 110
CNC[C@H](O)CN1CC(C(=O)Nc2ccc(C)nc2OC(F)F)(c2ccccc2C(C)C)C1 [Ex 11-84, (S)-N-(2-(difluoromethoxy)-6-methylpyridin-3-yl)-1-(2-hydroxy-3-(methylamino)propyl)-3-(2-isopropylphenyl)azetidine-3-carboxamide] | 45
Cc1ccc(NC(=O)C2(c3ccccc3C(C)C)CN(C(=O)/C=C/C(=O)O)C2)c(OC(F)F)n1 [Ex 12-75, (E)-4-(3-((2-(difluoromethoxy)-6-methylpyridin-3-yl)carbamoyl)-3-(2-isopropylphenyl)azetidin-1-yl)-4-oxobut-2-enoic acid] | 50
Cc1ccc(NC(=O)C2(c3ccccc3C(C)C)CN(C(=O)CNC(C)(C)CC(=O)O)C2)c(OC(F)F)n1 [Ex 47, 3-((2-(3-((2-(difluoromethoxy)-6-methylpyridin-3-yl)carbamoyl)-3-(2-isopropylphenyl)azetidin-1-yl)-2-oxoethyl)amino)-3-methylbutanoic acid] | 95
COCCNCC(=O)N1CCC(C(=O)Nc2ccc(C)nc2OC(F)F)(c2ccccc2C(C)C)CC1 [Ex 12-48, N-(2-(difluoromethoxy)-6-methylpyridin-3-yl)-4-(2-isopropylphenyl)-1-((2-methoxyethyl)glycyl)piperidine-4-carboxamide] | 9
Cc1ccc(NC(=O)C2(c3ccccc3C(C)C)CN(CCC3(C(=O)O)CCOC3)C2)c(OC(F)F)n1 (stereo not shown) [Ex 11-76, 3-(2-(3-((2-(difluoromethoxy)-6-methylpyridin-3-yl)carbamoyl)-3-(2-isopropylphenyl)azetidin-1-yl)ethyl)tetrahydrofuran-3-carboxylic acid] | 18

The remaining lines, values ahead:

IC50 [nM] | SMILES
457 | COC(=O)C(C)(C)CCN1CC(C(=O)Nc2ncc(Cl)cc2OC(F)F)(c2ccccc2C(C)C)C1 [Ex 78-1, methyl 4-(3-((5-chloro-3-(difluoromethoxy)pyridin-2-yl)carbamoyl)-3-(2-isopropylphenyl)azetidin-1-yl)-2,2-dimethylbutanoate]
25 | Cc1ccc(NC(=O)C2(c3ccccc3C(C)C)CN(S(=O)(=O)NC(C)C)C2)c(OC(F)F)n1 [Ex 15-12, N-(2-(difluoromethoxy)-6-methylpyridin-3-yl)-3-(2-isopropylphenyl)-1-(N-isopropylsulfamoyl)azetidine-3-carboxamide]
2 | Cc1ccc(NC(=O)C2(c3ccccc3C(C)C)CN(c3ncncc3F)C2)c(OC(F)F)n1 [Ex 18-20, N-(2-(difluoromethoxy)-6-methylpyridin-3-yl)-1-(5-fluoropyrimidin-4-yl)-3-(2-isopropylphenyl)azetidine-3-carboxamide]
5 | COC(=O)[C@@H](C)NC(=O)N1CC(C(=O)Nc2ccc(C)nc2OC(F)F)(c2ccccc2C(C)C)C1 [Ex 17-23, methyl (3-((2-(difluoromethoxy)-6-methylpyridin-3-yl)carbamoyl)-3-(2-isopropylphenyl)azetidine-1-carbonyl)-D-alaninate]
14 | Cc1ccc(NC(=O)C2(c3ccccc3C3CCCCC3)CN(C(=O)CC(C)(C)C(=O)O)C2)c(OC(F)F)n1 [Ex 31-5, 4-(3-(2-cyclohexylphenyl)-3-((2-(difluoromethoxy)-6-methylpyridin-3-yl)carbamoyl)azetidin-1-yl)-2,2-dimethyl-4-oxobutanoic acid]
7 | Cc1ccc(NC(=O)C2(c3ccccc3C(C)C)CN(C(=O)NCCC(C)(C)C(=O)O)C2)c(OC(F)F)n1 [Ex 17-19, 4-(3-((2-(difluoromethoxy)-6-methylpyridin-3-yl)carbamoyl)-3-(2-isopropylphenyl)azetidine-1-carboxamido)-2,2-dimethylbutanoic acid]
16 | Cc1ccc(NC(=O)C2(c3ccccc3C(C)C)CN(C(=O)NCC3(C(=O)O)CC3)C2)c(OC(F)F)n1 [Ex 17-15, 1-((3-((2-(difluoromethoxy)-6-methylpyridin-3-yl)carbamoyl)-3-(2-isopropylphenyl)azetidine-1-carboxamido)methyl)cyclopropane-1-carboxylic acid]
34 | Cc1ccc(NC(=O)C2(c3ccccc3C(C)C)CN(c3ccnc(C(=O)O)n3)C2)c(OC(F)F)n1 [Ex 18-11, 4-(3-((2-(difluoromethoxy)-6-methylpyridin-3-yl)carbamoyl)-3-(2-isopropylphenyl)azetidin-1-yl)pyrimidine-2-carboxylic acid]
15 | COc1cc(Cl)cnc1NC(=O)C1(c2ccccc2C(C)C)CN(S(N)(=O)=O)C1 [Ex 81-1, N-(5-chloro-3-methoxypyridin-2-yl)-3-(2-isopropylphenyl)-1-sulfamoylazetidine-3-carboxamide]
4 | CC(C)c1ccccc1C1(C(=O)Nc2cccnc2OC(F)F)CN(c2ccc(C#N)cn2)C1 [Ex 18-23, 1-(5-cyanopyridin-2-yl)-N-(2-(difluoromethoxy)pyridin-3-yl)-3-(2-isopropylphenyl)azetidine-3-carboxamide]

Reference: patent publication US12344597B2, “Alkoxy-substituted pyridinyl derivatives as LPA1 receptor antagonists and their use in the treatment of fibrosis” (IDORSIA PHARMACEUTICALS LTD, priority 2018, dated 2025)
